These results are taken from paper PMC9827864, “In Situ Inhibitor Synthesis and Screening by Fluorescence Polarization: An Efficient Approach for Accelerating Drug Discovery” (Angewandte Chemie (International Ed. in English), 2022).

Data set [1] has as its target T1, human prolyl hydroxylase 2 (PHD2) (Homo sapiens, UniProt Q9GZT9).
T1 construct: (181-426); made in house
Put plainly: Fluorescence polarization (FP) competition assay of PHD2. The conditions noted are these: purified compounds, 20 nM PHD2 (181-426), 30 nM probe, Cheng-Prusoff, mean±SD, read-out: Ki, binding affinity for PHD2. How it is done: 2.1 Fluorescence polarization (FP) competition assay of PHD2 [4]
FP assays were performed using a SPARK Multi-Mode Microplate Reader (Tecan) with excitation and emission filters appropriate for the fluorophore used in the binding experiment. Fluorescence polarization experiments were performed in 384-well, flat bottom, black assay plates (#3575, Corning) in a final volume of 60 µL. The final assay buffer contained: 30 nM fluorescence Probe, 20 nM PHD2 (181-426), 10 mM HEPES, pH 7.4, 150 mM NaCl, 0.05% Tween-20, and at the 1% DMSO (except for DMSO tolerance experiments, in which different DMSO concentrations were used as indicated). All plates measured in fluorescence polarization assays were incubated for a minimum of 30 min at RT. Fluorescence polarization was measured from the top of the well with a Tecan SPARK plate reader with polarized filters and optical modules for fluorescein (λex = 485 nm ± 25 nm, λem = 535 nm ± 25 nm). The standard error of the mean (SEM) values, were calculated by dividing the sample standard deviation by the square root of the sample size and are recorded as ± values for IC 50. Dose-dependent experiments were performed in th e same manner using at least 10 concentrations of the test compounds in 3 -fold serial dilutions from 100 µM. For each assay, negative controls (equivalent to 0% displacement) contained the fluorescent ligand, PHD2 (181 -426), and 20 µL FP buffer; blank cont rols contained only the fluorescent ligand and 40 µL buffer.
The reaction mixtures were incubated at RT for 60 min, then total fluorescence and fluorescence polarization measurements wer e taken. The percentage inhibition was calculated using Equation 1, where mPfree is the signal for the free probe (blank control) and mPbound is the signal for the bound probe (negative control).
IC50s were determined for duplicate measurements by non-linear least-squares analysis using GraphPad Prism 8.0.
The Ki values of the inhibitors were calculated using the Cheng-Prusoff equation.[5] Cheng-Prusoff equation: Ki = IC50 / (1 + [L]/Kd)
The Kd value was determined using a constant concentration of probe and titrating with PHD2 protein at increasing concentrations. [L] represents the concentration of the […] used in the FP assay. […]

The test system of data set [2] is C57BL/6J mouse models of anemia induced by cisplatin. Put plainly: Improvement of anemia induced by cisplatin administration. Type of data set: in vivo. The settings on record: cisplatin-induced anemia mice, po, 20 mg·kg^-1. Here is the method: 5. Pharmacodynamic assay
The experimental mice (SPF, […], male) were obtained from SPF (Beijing) Biotechnology Co., Ltd (permit number: SCXK (Jing) 2019-0010). All animal related experiments were conducted under a China Pharmaceutical University (the certification of using the housing facility of laboratory animals: SYXK (Su) 2018 -0019) IACUC approved protocol in compliance with the guide for the care and use of laboratory animals (number: 202013705). […]
Representative compounds and Roxadustat were formulated in normal saline solution. […]
China Pharmaceutical University (ADVIA 2120 hematology system). […]
5.3 Improvement of anemia induced by cisplatin administration
C57BL/6J mice were treated with cisplatin ( po, 7 mg·kg-1) on days 0, 7, 14, and 28 of the experiment. On the 29th day, the animals were randomized into sham, control, and treated groups (n=5). […]
treatment anemia caused by cisplatin. The mice were treated with the compounds every alternate day for 30 days. the test sample is obtained via orbital venous plexus. The hemoglobin of samples was analyzed in the center for new drug safety evaluation and research at China Pharmaceutical University (ADVIA 2120 hematology system).

The structures appear in SMILES notation. Where only a bound is given, the exact number is not on record here.

T1 sequence (Q9GZT9 181-426): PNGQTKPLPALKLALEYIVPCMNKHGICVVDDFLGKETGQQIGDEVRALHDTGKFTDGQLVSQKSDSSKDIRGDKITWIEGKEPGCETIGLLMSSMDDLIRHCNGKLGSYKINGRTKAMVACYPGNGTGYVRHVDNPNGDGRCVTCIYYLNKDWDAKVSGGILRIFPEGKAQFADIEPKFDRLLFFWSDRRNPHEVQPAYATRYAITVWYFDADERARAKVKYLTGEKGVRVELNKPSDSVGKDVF

For orientation: Ki means a dissociation constant, usually derived from enzyme kinetics or from competition with a known ligand. For orientation: melting point means the temperature, or range, at which the solid turns liquid. In turn, `O=C(N/N=C/c1cccc(Cl)c1O)c1cnc(-c2cccnn2)[nH]c1=O` [compound 16] gave a melting point of over 300 °C. In addition, in data set [1], the Ki amounted to 394 ± 17 nM. In the same order, the values of `O=C(O)c1ccc(/C=N/NC(=O)c2cnc(-c3ncccn3)[nH]c2=O)cc1` [compound 13] are over 300 °C and 1050 ± 129 nM.

With `O=C(N/N=C/c1cccc(O)c1O)c1cnc(-n2cncn2)[nH]c1=O` [compound 5], the melting point was over 300 °C. In data set [1], the Ki turned out to be 548 ± 32 nM. For the molecule `Cc1nc(C(=O)NCC(=O)O)c(O)c2ccc(Oc3ccccc3)cc12` [Roxadustat, reference compound], the “Improvement of anemia (%)” value in data set [2] is recorded as 48.5%. `O=C(O)c1ccc(/C=N/NC(=O)c2cnc(-c3ccccn3)[nH]c2=O)cc1` [compound 12] registered a melting point of over 300 °C. The Ki in data set [1] is 103 ± 4 nM. As for `O=C(N/N=C/c1cccc(O)c1O)c1cnc(-n2cccn2)[nH]c1=O` [compound 1], the melting point is over 300 °C. In addition, the Ki in data set [1] was determined as 113 ± 5 nM. On the same counts, the results for `O=C(N/N=C/c1ccc(O)c(O)c1O)c1cnc(-c2ccccn2)[nH]c1=O` [compound 10] are over 300 °C and 130 ± 4 nM. `O=C(N/N=C/c1cccc(O)c1Cl)c1cnc(-c2ccccn2)[nH]c1=O` [compound 18] yielded a melting point of over 300 °C. Also, the inhibitory constant (Ki) in data set [1] came out at 116 ± 5 nM. In the case of `O=C(O)c1cc(/C=N/NC(=O)c2cnc(-c3ccccn3)[nH]c2=O)ccc1O` [compound 15], the melting point is over 300 °C. In addition, the inhibition constant Ki in data set [1] came to 200 ± 8 nM. With `O=C(N/N=C/c1cccc(O)c1O)c1cnc(-c2cccnn2)[nH]c1=O` [compound 2], in data set [1], the Ki came out at 68 ± 6 nM. `O=C(N/N=C/c1ccccc1O)c1cnc(-c2ccccn2)[nH]c1=O` [compound 8] returned a melting point of over 300 °C. The Ki in data set [1] was found to be 639 ± 37 nM. In the same order, the values of `O=C(N/N=C/c1ccc(O)c(O)c1)c1cnc(-c2ccccn2)[nH]c1=O` [compound 6] are 294.7 to 295.2 °C and 2620 ± 103 nM.

Consider `O=C(N/N=C/c1cc(O)ccc1O)c1cnc(-c2ccccn2)[nH]c1=O` [compound 9], for which the melting point was over 300 °C. The Ki in data set [1] was 483 ± 9 nM. With `O=C(O)c1ccccc1/C=N/NC(=O)c1cnc(-c2cccnn2)[nH]c1=O` [compound 11], in data set [1], the Ki was found to be 119 ± 9 nM. `O=C(N/N=C/c1cc(O)c(O)c(O)c1)c1cnc(-c2ccccn2)[nH]c1=O` [compound 7]: the melting point was over 300 °C. Further, in data set [1], the Ki was determined as 72 ± 5 nM. Molecule `O=C(N/N=C/c1cccc(O)c1O)c1cnc(-c2ncccn2)[nH]c1=O` [compound 4] registered a melting point of over 300 °C. Also, in data set [1], the inhibition constant (Ki) was determined as 500 ± 16 nM. The molecule `O=C(N/N=C/c1cccc(O)c1O)c1cnc(-c2ccccn2)[nH]c1=O` [compound 3] yielded a melting point of over 300 °C. The Ki in data set [1] stood at 48 ± 4 nM. Regarding `O=C(O)c1cc(/C=N/NC(=O)c2cnc(-c3cccnn3)[nH]c2=O)ccc1O` [compound 14], the melting point is over 300 °C. Also, in data set [1], the Ki turned out to be 155 ± 18 nM.
